Experimental data reported in patent US20030073662A1, “Regulation of cellular functions by ectopic expression of non-endogenous cell signalling receptors” (priority 1995, published 2003).
Where two headings read alike, the source gives them in different places. Positions of bridges follow the written chain, without caps; N, C: chain ends. No end group written: not given here.

Columns and labels:
[1] = tested on: mouse TRH-R / phosphoinositide pathway in primary hepatocytes; assay: Stimulation of inositol phosphate formation in hepatocytes from rats after in vivo transfer of the TRH-R cDNA; assay type: cell-based, rat
Procedure: (§1) Primary hepatocytes were exposed to the vectors AdCMV.βgal or AdCMV.mTRH-R. After 24 hr, the cells were labeled for 24 hr with myo-[^3H]inositol (myo-[2-^3H]inositol; 20 Ci/mmol, Amersham Corporation, Arlington Heights, Ill.), incubated (5 min, 37° C.) with 10 mM LiCl, stimulated (60 min, 37° C.) with methyl-TRH. The cells were then lysed, the inositol phosphates were separated by anion-exchange chromatography and the radioactivity counted. The fold stimulation of inositol phosphates formation was calculated as: (dpm in inositol phosphates ×100/dpm in lipids of stimulated cells) (dpm in inositol phosphates ×100/dpm in lipids of unstimulated cells) (35). For each dose of vector, triplicate measurements were made in hepatocytes from two different animals.
(§2) Sprague-Dawley rats (250-300 g, 3 months old, fed ad libitum) were anaesthetized with ketamine-HCl (60 mg/kg) and xylazine (5 mg/kg). The Ad vectors [AdCMV.mTRH-R, AdCMV.βgal, AdCMV.Null (the “Null” vector is similar to the other vectors except that the expression cassette contains the CMV promoter but no recombinant gene) (31)] were administered via the right external jugular vein (5×10^9 pfu, 100 μl 0.9% NaCl). The livers were recovered 5 days later.
Measurement of inositol phosphates formation was identical to that described for FIG. 3. Triplicate measurements were made from three individual animals per condition.

[2] = biological target: T1, mouse thyrotropin releasing hormone receptor (TRH-R) (Mus musculus, UniProt P21761); assay type: binding
T1 construct: containing the protein-coding region of the mouse TRH-R cDNA, nucleotides 233-1462 of plasmid pBSmTRHR; expressed in transfected cells; host or cells: Primary Sprague-Dawley rat hepatocytes transduced with adenovirus AdCMV.mTRH-R, either in vitro (moi 1-100) or in vivo (i.v., hepatocytes isolated 5 days later)
Procedure: (§3) FIG. 2 illustrates the binding of methylthyrotropin releasing hormone (methyl-TRH) to hepatocytes following adenovirus-mediated in vitro transfer of the TRH-R cDNA. […] Following incubation for 24 hr with the vectors AdCMV.βgal or AdCMV.mTRH-R, the hepatocytes (10^6/well) were incubated for 60 min with [^3H]methyl-TRH (82.5 Ci/mmol, New England Nuclear-Dupont, Boston, Mass.) or [^3H]methyl-TRH plus excess unlabeled methyl-TRH (Sigma, St. Louis, Mo.). Free ligand was removed by aspirating the medium and washing the cells 5 times with 2 ml (4° C.) Hanks balanced salt solution. Cell associated radioactivity was measured by dissolving the cells with 1 ml of 0.4 N NaOH and counting. Specific binding of the [^3H]methyl-TRH was calculated as: [(dpm of [^3H]methyl-TRH)-(dpM [^3 H]methyl-TRH in the presence of unlabeled methyl-TRH)] (34). For each dose of the vector, triplicate measurements were made in hepatocytes from two different animals. The number of TRH-R receptor sites was calculated assuming a one-to-one stoichiometry of ligand to receptor and a homogeneous distribution of TRH-Rs.

[3] = biological target: T1, mouse thyrotropin releasing hormone receptor (TRH-R); assay: [3H]methyl-TRH binding to primary hepatocytes from rats after in vivo adenovirus-mediated transfer of the TRH-R cDNA; design: species or system rat
Procedure: as §3, §2
FIGS. 4 and 5 are Northern analyses. Liver RNA (10 μg/lane) was evaluated with a mouse TRH-R cDNA probe (FIG. 4, lanes 1 and 2) or, as a positive control, […] cDNA (FIG. 5, lanes 3 and 4). The sizes of the transcripts are indicated. Lanes 1 and 3 (FIG. 4 and FIG. 5, respectively) are animals receiving AdCMV. βgal. […] The analysis of [^3H]methyl-TRH binding was identical to that described for FIG. 2. Triplicate measurements were made from three individual animals per condition.

[4] = tested on: mouse TRH-R / phosphoinositide pathway in primary hepatocytes; assay: Stimulation of inositol phosphate formation in hepatocytes after in vitro transfer of the TRH-R cDNA; assay type: cell-based, rat
From the text: The replication-deficient recombinant adenovirus vectors are all E1a^−, partial E1b^−, partial E3^− based on adenovirus type 5, in which an expression cassette containing a promoter, driving the expression of a recombinant gene, is inserted at the site of the El deletion. AdCMV.mTRH-R contains an expression cassette with the cytomegalovirus early intermediate promoter/enhancer (CMV) followed by the mouse thyrotropin releasing hormone receptor (TRH-R) cDNA (30). AdCMV.βgal carries the CMV promoter and the E.coli LacZ gene [encoding β-galactosidase (βgal)] (31). The adenovirus vectors were prepared, purified, and titered as previously described (32,33). […]
as §1, with “For each dose of vector, triplicate measurements were made in hepatocytes from two different animals.” left out

Sprague-Dawley rats = assay: Modulation of serum glucose in rats after in vivo transfer of the TRH-R cDNA to the liver; design: species or system rat
Procedure: as §2
The vectors AdCMV.mTRH-R or AdCMV.Null (5×10^9 pfu), or saline (0.9%) as negative control (all in 100 μl) were administered to rats as described above. Five days later, the animals were anaesthetized by methoxyflurane (Pitman-Moore, Mundelein, Ill.) inhalation and the left and right external jugular veins were cannulated. After 15 min to permit stabilization, a 15 min baseline period was started, during which serum samples for glucose levels were obtained every 5 min. At “0 time” methyl-TRH (500 μg in 100 μl) or saline (0.9%, 100 μl ) was administered in one cannula and the serum samples obtained from the other cannula every 5 min for 55 min. Serum glucose levels were determined by colormetric assay (Sigma Diagnostics, St. Louis, Mo.).
The baseline glucose levels were determined for each animal as an average from −15 to 0 before administration of methyl-TRH or saline. The data are presented as the absolute change from the average baseline serum glucose level (mM) using each individual animal as its own control, and averaging the values at each time point for each group of animals. AdCMV.mTRH-R (IV)/TRH=vector administered intravenously at day 0, methyl-TRH administered at day 5, n=6 animals; AdCMV.mTRH-R(IP)/TRH=vector administered via the portal vein at day 0, methyl-TRH administered at day 5, n=5; AdCMV.Null(IV)/TRH=vector administered intravenously at day 0, methyl-TRH at day 5, n=6; saline/TRH=saline administered instead of vector at day 0, methyl-TRH at day 5, n=6; and naive/saline=nothing administered at day 0, saline at day 5, n=5. The data is presented as the mean for all animals in the group at each time point. The normal range for serum glucose Sprague-Dawley rats is 2.5 6.7 mM(36).
FIG. 9 illustrates the average change in serum glucose levels from baseline. The average change in serum glucose levels from baseline was determined for each time point from 15 to 55 min after administration of methyl-TRH or saline on day 5. The data are presented as mean±standard deviation. All statistical comparisons were made using the two-tailed Student's t-test.

[5] = hepatocytes uninfected or infected with control vector AdCMV.βgal
[6] = read-out: Kd of methyl-TRH binding
[7] = hepatocytes from AdCMV.mTRH-R infected animals, not shown

T1 sequence (P21761 whole entry): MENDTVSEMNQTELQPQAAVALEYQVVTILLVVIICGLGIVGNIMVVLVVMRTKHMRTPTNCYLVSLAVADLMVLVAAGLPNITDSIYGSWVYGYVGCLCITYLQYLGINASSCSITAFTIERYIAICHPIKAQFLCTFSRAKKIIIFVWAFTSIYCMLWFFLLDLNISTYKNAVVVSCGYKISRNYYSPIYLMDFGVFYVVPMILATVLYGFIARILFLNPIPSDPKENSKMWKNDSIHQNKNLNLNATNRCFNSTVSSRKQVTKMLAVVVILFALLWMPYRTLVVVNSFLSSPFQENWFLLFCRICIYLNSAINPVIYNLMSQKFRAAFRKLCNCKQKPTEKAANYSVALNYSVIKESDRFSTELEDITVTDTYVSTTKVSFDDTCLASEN

## NC(=O)[C@@H]1CCCN1C(=O)[C@H](Cc1cnc[nH]1)NC(=O)[C@@H]1CCC(=O)N1 [TRH, thyrotropin-releasing hormone]
[1]; hepatocytes from animals infected 5 days previously with AdCMV.mTRH-R
  fold stimulation of inositol phosphate formation above controls of no added methyl-TRH: 16.9±1.8 fold
[1]; hepatocytes from uninfected animals and animals infected in vivo with AdCMV.βgal
  stimulation of inositol phosphate formation: no stimulation of inositol phosphate formation

## Cn1cnc(C[C@H](NC(=O)[C@@H]2CCC(=O)N2)C(=O)N2CCC[C@H]2C(N)=O)c1 [methyl-TRH, methylthyrotropin releasing hormone]
[2]; hepatocytes infected with AdCMV.mTRH-R, not shown
  internalization of ligand-receptor complex: internalized
[2]; [5]
  specific binding of methyl-TRH: no specific binding
[2]; [6]
  Kd: 3.18 ± 0.39 nM
[3]; [7]
  internalization of methyl-TRH complex: underwent internalization
[3]; hepatocytes from animals receiving AdCMV.mTRH-R in vivo
  methyl-TRH specific binding: high levels of methyl-TRH specific binding
[3]; hepatocytes from naive animals or animals receiving control vector AdCMV.βgal
  methyl-TRH specific binding: no specific methyl-TRH binding
[3]; [6]
  Kd: 2.51 ± 0.32 nM
[4]; hepatocytes infected in vitro with AdCMV.mTRH-R, dependent on vector dose
  inositol phosphates formation: increased amounts of inositol phosphates
[4]; [5]
  inositol phosphates formation: no increase in inositol phosphates
[1]; [7]
  period of increase in formation of inositol phosphates after addition: at least 1 hr
Sprague-Dawley rats; methyl-TRH 500 μg IV, rats given AdCMV.mTRH-R intravenously 5 days previously
  increase in blood glucose over baseline from 15 to 55 min after administration: 1.73 ± 0.26 mM
Sprague-Dawley rats; methyl-TRH IV, control rats given saline (similar with AdCMV.Null) 5 days previously
  change in blood glucose over baseline: small increase in blood glucose
Sprague-Dawley rats; methyl-TRH IV, rats given AdCMV.mTRH-R intravenously 5 days previously
  time of peak rise in blood glucose after administration: 15 min
Sprague-Dawley rats; methyl-TRH IV, rats given AdCMV.mTRH-R intravenously 5 days previously, experiment terminated at 55 min
  time for which elevation in blood glucose was maintained: at least 55 min
Sprague-Dawley rats; methyl-TRH IV, rats given AdCMV.mTRH-R via the portal vein 5 days previously
  rise in blood glucose compared with intravenous vector group: superimposable

## [Arg^8]vasopressin (CYFQNCPRG-NH2; disulfide 1-6; ends not checked; UniProt P01185 20-28, looked up) [positive control for rise in blood glucose]
Sprague-Dawley rats; positive control, intravenous route, 55 min evaluation, not shown
  change in blood glucose: an increase in blood glucose, followed by a decrease
